{
  "source": "paper PMC2912408",
  "about": "(Biochemistry, 2010)",
  "data": [
    {"target": "T1, rat I7 olfactory receptor (OR-I7) (Rattus norvegicus, UniProt P23270)", "T1 sequence (P23270 1-327)": "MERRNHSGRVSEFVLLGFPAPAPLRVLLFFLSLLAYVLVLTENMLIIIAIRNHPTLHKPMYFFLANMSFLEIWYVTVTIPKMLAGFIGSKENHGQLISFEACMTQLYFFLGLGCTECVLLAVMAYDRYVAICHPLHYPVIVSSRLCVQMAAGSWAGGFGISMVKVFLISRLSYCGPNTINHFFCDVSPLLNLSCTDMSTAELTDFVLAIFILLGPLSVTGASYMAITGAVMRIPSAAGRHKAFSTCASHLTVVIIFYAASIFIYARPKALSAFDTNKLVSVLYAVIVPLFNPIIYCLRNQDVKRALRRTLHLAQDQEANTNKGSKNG", "format": "cell-based", "units": {"EC50": "µM"}, "values": [
      {"smiles": "CCCCCCCCCCC=O", "note": "[undecanal]", "EC50": "446 ± 16"},
      {"smiles": "CCCCCCCCCC=O", "note": "[decanal]", "EC50": "16 ± 1.7"},
      {"smiles": "CCCCCCCCC=O", "note": "[nonanal]", "EC50": "4.4 ± 0.4"}
    ]}
  ]
}
